Columns and labels:
[1] = test system: rat aortic smooth muscle cells; assay: Nitrite production (indicator of cellular NO synthesis) by LPS/interferon-gamma induced rat aortic smooth muscle cells (Examples IV, V); format: cell-based; conditions: 24 hours, FIG. 4
Procedure: Rat aortic smooth muscle cells were grown as described in Example I and were continuously treated with 30 μg/ml of bacterial lipopolysaccharide in combination with 50 ng/ml of interferongamma. Concentrations of mithramycin as indicated in FIG. 4 were added either simultaneously with immunostimulant (filled in circles in FIG. 4) or 4 hours later (open circles in FIG. 4).
Nitrite was used as an indicator of cellular NO synthesis and assay was carried out as described in Gross, S. S., et al, J. Biol. Chem. 267, 25722-25729 (1992). In the assay, cells were treated with serum- and arginine-free RPMI 1640 medium containing the desired test agents for 24 hours. The accumulation of nitrite in the cell culture medium was quantified colorimetrically after adding 100 μl of Griess reagent (1% sulfanilamide and 0.1% naphthalene diamine in 5% o-phosphoric acid) to an equal volume of sample.
Rat aortic smooth muscle cells were grown as described in Example I and were treated with 30 μg/ml of bacterial lipopolysaccharide in combination with 50 ng/ml of interferon-gamma. Concentrations of L-citrulline and L-arginine as indicated in FIG. 5 were added simultaneously with immunostimulant. Nitrite was used as an indicator of cellular NO synthesis and assay therefor was carried out as described in Example IV.

[2] = test system: human treated with interleukin-2; assay: Hypotension during interleukin-2 treatment for renal cell cancer (Examples VIII, XIV); format: in vivo; conditions: interleukin-2 1×10^6 units, 5 days; mithramycin 25 μg/kg intravenously as pretreatment and at 24 hour intervals
Procedure: A human is treated for renal cell cancer with interleukin-2 (1×10^6 units) for 5 days. By the fifth day, the patient's blood pressure falls to 80/55 mm Hg and the patient encounters nausea and extreme discomfort. Three weeks later, the patient returns for a second course of interleukin-2 treatment but is pretreated (before commencing interleukin-2 infusion) with mithramycin (25 μg/kg) and is treated at 24 hour intervals thereafter with 25 μg/kg of mithramycin. The mithramycin is administered intravenously in 50 ml saline over a 3 to 6 hour interval.
A human is treated for renal cell cancer with interleukin-2 (1×10^6) for 5 days. Simultaneously with commencing interleukin-2 infusion, L-thiocitrulline (10 mg/kg/day) is administered.

[3] = test system: patient with Gram negative septicemia; assay: Blood pressure in septicemia patient given N^G -methyl-L-arginine plus test agent (Examples X, XVI); format: in vivo, human; conditions: N^G -methyl-L-arginine 20 mg/kg bolus then 10 mg/kg/hr, plus mithramycin 25 μg/kg intravenously over 3-6 hours
Procedure: A patient with Gram negative septicemia and blood pressure of 80/55 mm Hg is administered N^G -methyl-L-arginine in a bolus dose of 20 mg/kg intravenously in saline and thereafter is given a sustained infusion of N^G -methyl-L-arginine at a dosage of 10 mg/kg/hr. Mithramycin (25 μg/kg) is given intravenously in 50 ml saline over 3-6 hours starting at the time of the bolus dose of N^G -methyl-L-arginine. […] The patient is released after 2 days.
A patient with a Gram negative septicemia and blood pressure of 80/55 mm Hg is administered N^G -methyl-L-arginine in a bolus dose of 20 mg/kg intravenously in saline and thereafter is given a sustained infusion of N^G -methyl-L-arginine at a dose of 10 mg/kg/hr. N^ω -Methyl-L-citrulline (40 mg/kg) is given intravenously in 50 ml saline over 3-6 hours starting at the time of the bolus dose of N^G -methyl-L-arginine.

[4] = test system: argininosuccinate synthetase mRNA; assay: RT-PCR of argininosuccinate synthetase mRNA in induced rat aortic smooth muscle cells (Example III); format: cell-based; conditions: LPS 30 μg/ml plus interferon-gamma 50 ng/ml with mithramycin, 6 hours; FIG. 3
Procedure: (§1) Rat aortic smooth muscle cells were grown as described in Example I and were treated with 30 μg/ml bacterial lipopolysaccharide in combination with 50 ng/ml interferon-gamma. […] RNA was extracted by a modified guanidinium isothiocyanate method (RNAzol; Cinna/Biotecz, Houston, Tex.). Reverse transcriptase-polymerase chain reaction was performed by standard methods using 1 μg of total RNA. This was followed by polymerase chain reaction amplification using synthetic gene-specific primers for rat argininosuccinate synthetase as described in Amaya, Y., et al, J. Biochem. (Tokyo) 103, 177-181 (1988), for argininosuccinate lyase as described in Surh, L. C., et al, Nucleic Acids Research, 16, 9352 (1988) and murine-inducible nitric oxide synthase as described in Lyons, C. R., et al, J. Biol. Chem. 267, 6370-6374 (1992). The primers are specifically described in Hattori, Y., et al, J. Biol. Chem. 269, 9405-9408 (1994). Polymerase chain reaction amplification was performed according to the following schedule: denaturation, annealing, and elongation at 95, 55 and 72° C. for 30 sec, 30 sec and 1 min, respectively, for 30 cycles. […] Polymerase chain reaction products were electrophoresed on a 1.5% agarose gel containing ethidium bromide and visualized by UV-induced fluorescence. […]

[5] = test system: nitric oxide synthase mRNA; assay: RT-PCR of nitric oxide synthase mRNA in induced rat aortic smooth muscle cells (Example III); format: cell-based; conditions: LPS 30 μg/ml plus interferon-gamma 50 ng/ml with mithramycin, 6 hours; FIG. 3
Procedure: as §1

Sprague-Dawley rats = assay: Air pouch inflammatory model with croton oil (Examples XII, XVIII); format: in vivo, rat; conditions: mithramycin 25 μg/kg intraperitoneally, repeated at 24 hour intervals; end of 5 days; versus rats without drug

## COC(C(=O)C(O)C(C)O)C1Cc2cc3cc(OC4CC(OC5CC(O)C(O)C(C)O5)C(O)C(C)O4)c(C)c(O)c3c(O)c2C(=O)C1OC1CC(OC2CC(OC3CC(C)(O)C(O)C(C)O3)C(O)C(C)O2)C(O)C(C)O1 (centres unmarked) [mithramycin]
[1]; mithramycin added 4 hours after immunostimulant
  nitrite accumulation in cell culture medium: effectiveness to block NO production is markedly diminished
[1]; mithramycin added simultaneously with immunostimulant
  nitrite accumulation in cell culture medium: inhibits induction of NO synthetic activity but is not a direct inhibitor of argininosuccinate synthetase or nitric oxide synthase
[2]
  development of hypotension: hypotension does not develop
[3]
  blood pressure: becomes normotensive within minutes of administration of the bolus dose of N^G -methyl-L-arginine and the normotensive state is sustained
[4]
  gene transcription of argininosuccinate synthetase (mRNA level): inhibits gene transcription of argininosuccinate synthetase
[5]
  gene transcription of nitric oxide synthase (mRNA level): inhibits gene transcription of argininosuccinate synthetase and nitric oxide synthase
Sprague-Dawley rats
  inflammation: less inflammation
  nitrite in the fluid exudate of the lesion: significantly less nitrite

— patent publication US5545625A, “Preventing conversion of citrulline to argininosuccinate to limit pathological nitric oxide overproduction” (The Medical College of Wisconsin Research Foundation, Inc., priority 1994, dated 1996)
